Measurements reported in patent publication US20060045953A1 (priority 2004, published 2006).

target: T1, hT1R1/hT1R3 umami receptor (Homo sapiens, UniProt Q7RTX0+Q7RTX1); assay: In vitro hT1R1/hT1R3 umami taste receptor activation assay (FLIPR, dose response); format: cell-based; conditions: read-out: EC50 for activation of a hT1R1/hT1R3 umami receptor expressed in an HEK293 cell line
T1 construct: expressed in transfected cells; host or cells: HEK293 derivative stably expressing Gα15, clone I-17, expression induced with mifepristone
T1 sequence (Q7RTX1 21-841): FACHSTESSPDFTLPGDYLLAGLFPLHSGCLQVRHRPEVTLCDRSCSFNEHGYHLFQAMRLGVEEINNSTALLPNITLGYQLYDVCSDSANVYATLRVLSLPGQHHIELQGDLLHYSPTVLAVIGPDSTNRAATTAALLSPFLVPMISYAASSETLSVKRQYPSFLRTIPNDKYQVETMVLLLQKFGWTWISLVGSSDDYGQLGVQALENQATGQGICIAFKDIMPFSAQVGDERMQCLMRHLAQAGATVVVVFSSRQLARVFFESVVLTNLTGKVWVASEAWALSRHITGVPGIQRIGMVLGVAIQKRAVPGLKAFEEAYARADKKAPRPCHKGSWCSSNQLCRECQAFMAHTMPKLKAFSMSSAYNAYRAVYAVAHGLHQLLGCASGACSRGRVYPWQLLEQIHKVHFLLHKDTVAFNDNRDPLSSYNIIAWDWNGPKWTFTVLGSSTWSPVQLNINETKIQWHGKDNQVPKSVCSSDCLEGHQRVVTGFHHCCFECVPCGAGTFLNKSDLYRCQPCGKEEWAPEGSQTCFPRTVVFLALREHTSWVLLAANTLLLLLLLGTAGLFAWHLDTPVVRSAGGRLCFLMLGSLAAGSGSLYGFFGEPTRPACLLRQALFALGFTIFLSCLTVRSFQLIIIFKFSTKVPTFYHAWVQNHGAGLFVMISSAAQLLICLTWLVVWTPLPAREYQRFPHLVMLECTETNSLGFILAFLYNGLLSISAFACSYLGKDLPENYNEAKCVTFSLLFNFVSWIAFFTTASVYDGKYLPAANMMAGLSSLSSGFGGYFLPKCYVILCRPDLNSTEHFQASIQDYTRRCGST
T1 sequence (Q7RTX0 21-852): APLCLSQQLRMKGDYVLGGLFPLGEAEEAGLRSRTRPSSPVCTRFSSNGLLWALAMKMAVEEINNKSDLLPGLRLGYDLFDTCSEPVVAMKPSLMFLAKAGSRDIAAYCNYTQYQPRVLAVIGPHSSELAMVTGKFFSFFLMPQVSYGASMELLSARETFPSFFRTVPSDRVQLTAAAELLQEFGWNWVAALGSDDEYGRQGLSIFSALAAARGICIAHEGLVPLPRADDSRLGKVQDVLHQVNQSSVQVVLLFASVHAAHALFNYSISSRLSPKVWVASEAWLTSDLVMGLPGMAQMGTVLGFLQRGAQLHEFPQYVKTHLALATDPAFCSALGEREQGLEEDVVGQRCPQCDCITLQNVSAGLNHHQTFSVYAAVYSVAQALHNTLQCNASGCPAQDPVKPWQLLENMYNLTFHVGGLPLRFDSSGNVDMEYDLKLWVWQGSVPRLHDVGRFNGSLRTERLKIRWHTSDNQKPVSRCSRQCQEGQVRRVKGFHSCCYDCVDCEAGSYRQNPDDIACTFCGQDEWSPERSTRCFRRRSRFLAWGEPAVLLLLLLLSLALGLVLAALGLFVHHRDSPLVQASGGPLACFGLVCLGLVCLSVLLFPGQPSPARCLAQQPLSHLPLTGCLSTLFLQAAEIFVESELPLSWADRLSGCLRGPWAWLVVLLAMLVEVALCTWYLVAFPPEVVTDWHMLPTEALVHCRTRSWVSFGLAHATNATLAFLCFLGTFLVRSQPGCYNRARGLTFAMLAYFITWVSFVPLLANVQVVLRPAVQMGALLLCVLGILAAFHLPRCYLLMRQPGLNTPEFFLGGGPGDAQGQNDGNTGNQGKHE
Description: In order to identify new savory flavoring agents and enhancers, including compounds with savory agonist and enhancer activities (dual activity), the compounds of Formula (I) were screened in primary assays and secondary assays including compound dose response and enhancement assay. In a primary assay for potential ability to modulate umami taste, amide compounds of Formula (I) that can be either savory flavoring agents in their own right or flavor enhancers of MSG are identified and scores of their activities are given as percentage of the maximum MSG intensity (%). In compound dose response, an EC50 is calculated to reflect the potency of the compound as a savory agonist or enhancer.
An HEK293 cell line derivative (See e.g., Chandrashekar, et al., Cell (2000) 100: 703-711) which stably expresses Gα15 and hT1R1/hT1R3 under an inducible promoter (see WO 03/001876 A2) was used to identify compounds with savory tasting properties.
For dose-responses analysis, stimuli were presented in duplicates at 10 different concentrations ranging from 1.5 nM to 30 μM. Activities were normalized to the response obtained with 60 mM monosodium glutamate, a concentration that elicits maximum receptor response. […] Identical results were obtained when analyzing the dose-response data using commercially available software for non-linear regression analysis such as GraphPad PRISM (San Diego, Calif.).

Compound | EC50 [nM]
CCCC(CC(C)C)NC(=O)/C=C/c1ccc(OC)cc1 (stereo not drawn) [Example 79, 3-(4-Methoxy-phenyl)-N-(3-methyl-1-propyl-butyl)-acrylamide] | 1840
CC(C)/C=C/C(=O)NC1CCCc2ccccc21 (stereo not drawn) [Example 84, 4-Methyl-pent-2-enoic acid (1,2,3,4-tetrahydro-naphthalen-1-yl)-amide] | 1500
COc1ccccc1/C=C/C(=O)NC1CCCCC1C (stereo not drawn) [Example 89, 3-(2-Methoxy-phenyl)-N-(2-methyl-cyclohexyl)-acrylamide] | 3400
CCCC(CCC)NC(=O)c1ccc(C)c(C)n1 [Example 91, N-(heptan-4-yl)-5,6-dimethylpicolinamide] | 2800
CCCC(CCC)NC(=O)c1ccc(N(CC)CC)cc1 [Example 92, 4-(diethylamino)-N-(heptan-4-yl)benzamide] | 7600
COC(=O)[C@@H](CC(C)C)NC(=O)c1cc(OC)nc(OC)c1 [Example 93, (R)-methyl 2-(2,6-dimethoxyisonicotinamido)-4-methylpentanoate] | 1910
CCCC(CCC)NC(=O)c1ccc(OC)nc1 [Example 94, N-(heptan-4-yl)-6-methoxynicotinamide] | 2660
CCCC(CCC)NC(=O)c1ccc(C)nc1Cl [Example 96, 2-chloro-N-(heptan-4-yl)-6-methylnicotinamide] | 3900
CCCC(CCC)NC(=O)c1cc(C)nn1C [Example 99, N-(heptan-4-yl)-1,3-dimethyl-1H-pyrazole-5-carboxamide] | 7800
CCCC(CCC)NC(=O)c1csc(C)n1 [Example 100, N-(heptan-4-yl)-2-methylthiazole-4-carboxamide] | 7200
CCCC(CCC)NC(=O)c1ccc2ncccc2c1 [Example 101, N-(heptan-4-yl)quinoline-6-carboxamide] | 3200
CCCC(CCC)NC(=O)c1cnc2ccccc2c1 [Example 102, N-(heptan-4-yl)quinoline-3-carboxamide] | 15800

Now those with a lower EC50, led by results:

EC50 [nM] | Compound
440 | CCCC(CCC)NC(=O)/C=C/c1cccs1 [Example 77, (E)-N-(heptan-4-yl)-3-(thiophen-2-yl)acrylamide]
920 | CCCCC/C=C/C(=O)N[C@H](CC(C)C)C(=O)OC [Example 78, (R,E)-methyl 4-methyl-2-oct-2-enamidopentanoate]
900 | COC[C@@H](CC(C)C)NC(=O)/C=C/c1ccc(OC)cc1 [Example 80, N-(1-Methoxymethyl-3-methyl-butyl)-3-(4-methoxy-phenyl)-acrylamide]
1100 | COc1ccc(/C=C/C(=O)N[C@@H](CO)Cc2ccccc2)cc1 [Example 81, N-(1-Benzyl-2-hydroxy-ethyl)-3-(4-methoxy-phenyl)-acrylamide]
1350 | CCOc1ccc(/C=C/C(=O)NC(CC)CC)cc1 [Example 82, 3-(4-Ethoxy-phenyl)-N-(1-ethyl-propyl)-acrylamide]
590 | COC(=O)[C@@H](CC(C)C)NC(=O)/C=C/c1cccs1 [Example 83, 4-Methyl-2-(3-thiophen-2-yl-acryloylamino)-pentanoic acid methyl ester]
160 | CCCC(CCC)NC(=O)/C=C/c1ccccc1F [Example 85, 3-(2-Fluoro-phenyl)-N-(1-propyl-butyl)-acrylamide]
900 | CCCC(CCC)NC(=O)/C=C/c1ccccc1OC [Example 86, 3-(2-Methoxy-phenyl)-N-(1-propyl-butyl)-acrylamide]
970 | CCCC(CCC)NC(=O)/C=C/c1ccc(OC)c(OC)c1 [Example 87, 3-(3,4-Dimethoxy-phenyl)-N-(1-propyl-butyl)-acrylamide]
1190 | CCCC(CCC)NC(=O)c1ccc2occc2c1 [Example 90, N-(heptan-4-yl)benzofuran-5-carboxamide]
1010 | CCCC(CCC)NC(=O)c1cnc(C)c(C)n1 [Example 95, 5,6-dimethylpyrazine-2-carboxylic acid (1-propylbutyl)amide]
1390 | CCCC(CCC)NC(=O)c1ccc(OC)cc1C#N [Example 97, 2-cyano-N-(heptan-4-yl)-4-methoxybenzamide]
